Entries after “also recorded” stand apart in the source; their conditions may differ. Square brackets hold non-standard residues; d marks the D form. Peptide text beside a SMILES is read from it. Dmt = Cc1cc(O)cc(C)c1C[C@H](N)C(=O)O
Columns and labels:
excised rat hearts = experiment: Modified Langendorff rat heart model, peptide pre-treatment before ischemia/reperfusion (Example 2); settings: hearts bathed 2 hours in 1 μM peptide before 20 min ischemia and 2 hours reperfusion; vs SBT-46, SBT-102 and controls; anticipated
Experimental: The Langendorff rodent heart model is widely employed in studies of myocardial function and responses to injury (e.g., ischemia). For whole-heart studies, male Sprague-Dawley rats (7-9 weeks old) are injected with pentobarbital (35 mg/kg, ip injection) and hearts are excised with midline thoracotomy. The aortas are secured around a cannula of a modified Langendorff apparatus and retrogradely perfused (perfusion pressure of 75 mm Hg) with a modified Krebs-Henseleit buffer containing (in mM): 118 NaCl, 24 NaHCO3, 4.75 KCl, 1.2 KH2PO4, 1.2 MgSO4, 2.0 CaCl2, and 10 glucose (gassed with 95/5% O2/CO2). Hearts are bathed in a buffer-filled perfusion chamber maintained at 37° C. for the duration of the experiments. Following the initiation of perfusion, hearts are instrumented for the simultaneous observation of mechanical and electrical function. A buffer-filled latex balloon (size 5, Harvard Apparatus, Holliston, Mass., USA), which is calibrated at the beginning of each day using a digital manometer, is inserted into the left ventricle (via the mitral valve) for the measurement of left ventricular developed pressure (LVDP), with balloon volume adjusted to establish a diastolic pressure of 5-8 mm Hg. Three electrodes are placed into the buffer filled perfusion chamber for the measurement of the volume-conducted electrocardiogram (ECG). Coronary flow rates are monitored constantly with a flow probe (Transconic Systems, Ithaca, N.Y., USA) connected in series with the perfusion line, and normalized to heart wet weight (in grams) at the end of each experiment. All physiological parameters are continuously monitored and stored on a personal computer using commercially available software (Chart, AD Instruments, Colorado Springs, Colo., USA). Heart rate is calculated using the LVDP trace, and maximal rates of contraction(+dP/dt) and relaxation (−dP/dt) are calculated using the derivative of the LVDP trace.
Prior to the initiation of ischemia/reperfusion, the excised rat hearts are bathed in buffer containing an experimental peptide at a concentration of 1 μM or buffer alone (control) for two hours. The experimental peptide is selected from D-Arg-D-Dmt-D-Lys-L-Phe-NH2 (SBT-46), D-Arg-L-DMT-L-Ala-L-Phe-NH2 (SBT-68), (Ac)-D-Arg-L-DMT-L-Lys-L-Phe-NH2 (SBT-85), D-Arg-L-Dmt-L-His-L-Phe-NH2(SBT-100), D-Arg-L-DMT-L-Orn-L-Phe-NH2 (SBT-102), D-Orn-L-DMT-L-Lys-L-Phe-NH2(SBT-131), D-(Amidine)Arg(propylamine)-L-DMT-L-Lys-L-Phe-NH2(SBT-140), and D-Arg(butylamidine analog)-L-DMT-L-Lys-L-Phe-NH2 (SBT-149). Following a 10 minute baseline period, ischemia/reperfusion is initiated. Hearts are exposed to global no-flow ischemia by stopping perfusion for 20 min. At the end of the index ischemia, static buffer from the perfusion lines is washed out (via an accessory port proximal to the aortic cannula), and reperfusion ensues for 2 hours with Krebs buffer. At the end of reperfusion, the left ventricle is dissected, sliced into 5 mm-thick slices, incubated in 1% triphenyltetrazolium chloride (TTC) for 10 min (37° C.) and digitally photographed for subsequent infarct size analysis. Infarct size is expressed as a percentage of the left ventricle (% area at risk (AAR))(calculated using ImageJ software, NIH, Bethesda, Md., USA).

[1] = test system: Excised Sprague-Dawley rat hearts; experiment: Modified Langendorff rat heart model, ischemia/reperfusion with peptide in the reperfusion buffer (Example 1); settings: 1 μM peptide in Krebs buffer during 2 hours reperfusion after 20 min global no-flow ischemia; compared to controls
Experimental: The Langendorff rodent heart model is widely employed in studies of myocardial function and responses to injury (e.g., ischemia). For whole-heart studies, male Sprague-Dawley rats (7-9 weeks old) were injected with pentobarbital (35 mg/kg, ip injection) and hearts were excised with midline thoracotomy. The aortas were secured around a cannula of a modified Langendorff apparatus and retrogradely perfused (perfusion pressure of 75 mm Hg) with a modified Krebs-Henseleit buffer containing (in mM): 118 NaCl, 24 NaHCO3, 4.75 KCl, 1.2 KH2PO4, 1.2 MgSO4, 2.0 CaCl2, and 10 glucose (gassed with 95/5% O2/CO2). Hearts were bathed in a buffer-filled perfusion chamber maintained at 37° C. for the duration of the experiments. Following the initiation of perfusion, hearts were instrumented for the simultaneous observation of mechanical and electrical function. A buffer-filled latex balloon (size 5, Harvard Apparatus, Holliston, Mass., USA), calibrated at the beginning of each day using a digital manometer, was inserted into the left ventricle (via the mitral valve) for the measurement of left ventricular developed pressure (LVDP), with balloon volume adjusted to establish a diastolic pressure of 5-8 mm Hg. Three electrodes were placed into the buffer filled perfusion chamber for the measurement of the volume-conducted electrocardiogram (ECG). Coronary flow rates were monitored constantly with a flow probe (Transconic Systems, Ithaca, N.Y., USA) connected in series with the perfusion line, and normalized to heart wet weight (in grams) at the end of each experiment. All physiological parameters were continuously monitored and stored on a personal computer using commercially available software (Chart, AD Instruments, Colorado Springs, Colo., USA). Heart rate was calculated using the LVDP trace, and maximal rates of contraction(+dP/dt) and relaxation (−dP/dt) were calculated using the derivative of the LVDP trace.
Following a 10 minute baseline period, ischemia/reperfusion was initiated. Hearts were exposed to global no-flow ischemia by stopping perfusion for 20 min. At the end of the index ischemia, static buffer from the perfusion lines was washed out (via an accessory port proximal to the aortic cannula), and reperfusion ensued for 2 hours either with Krebs buffer alone (control) or Krebs buffer containing an experimental peptide at a concentration of 1 μM. Peptides tested included D-Arg-D-Dmt-D-Lys-L-Phe-NH2 (SBT-46), D-Arg-L-DMT-L-Ala-L-Phe-NH2 (SBT-68), (Ac)-D-Arg-L-DMT-L-Lys-L-Phe-NH2 (SBT-85), D-Arg-L-Dmt-L-His-L-Phe-NH2(SBT-100), D-Arg-L-DMT-L-Orn-L-Phe-NH2 (SBT-102), D-Orn-L-DMT-L-Lys-L-Phe-NH2(SBT-131), D-(Amidine)Arg(propylamine)-L-DMT-L-Lys-L-Phe-NH2 (SBT-140), and D-Arg(butylamidine analog)-L-DMT-L-Lys-L-Phe-NH2(SBT-149). At the end of reperfusion, the left ventricle was dissected, sliced into 5 mm-thick slices, incubated in 1% triphenyltetrazolium chloride (TTC) for 10 min (37° C.) and digitally photographed for subsequent infarct size analysis. Infarct size was expressed as a percentage of the left ventricle (% area at risk (AAR))(calculated using ImageJ software, NIH, Bethesda, Md., USA).

CC(=O)N[C@H](CCCNC(=N)N)C(=O)N[C@@H](Cc1c(C)cc(O)cc1C)C(=O)N[C@@H](CCCCN)C(=O)N[C@@H](Cc1ccccc1)C(N)=O [SBT-85, (Ac)-D-Arg-L-DMT-L-Lys-L-Phe-NH2] (Ac-[dR][Dmt]KF-NH2)
LVDP (excised rat hearts): increased LVDP | infarct size (excised rat hearts): reduced infarct size | maximal rates of contraction (+dP/dt) (excised rat hearts): increased maximal rates of contraction | maximal rates of relaxation (−dP/dt) (excised rat hearts): increased maximal rates of relaxation | attenuation of cardiac ischemia injury and ischemia-reperfusion injury [1]: able to attenuate cardiac ischemia injury and ischemia-reperfusion injury; also recorded: attenuation of cardiac ischemia-reperfusion injury | infarct size expressed as a percentage of area at risk (AAR) [1]: reduced infarct size | left ventricular developed pressure (LVDP) [1]: increased LVDP | maximal rates of contraction (+dP/dt) [1]: increased maximal rates of contraction | maximal rates of relaxation (−dP/dt) [1]: increased maximal rates of relaxation

— US11548913B2, “Therapeutic compositions including peptides and uses thereof” (Stealth BioTherapeutics Inc., priority 2015, dated 2023)
